This passage reports IC50 results from US20100009956A1, “NOVEL SUBSTITUTED PYRIMIDINES AS CYSTEINE PROTEASE INHIBITORS” (Glaxo Group Limited , a corporation, priority 2006, published 2010).

Common to all, as to format: biochemical
In assay [1] the target is Falcipain-2 (Plasmodium falciparum, UniProt Q8I6U4). Put plainly: Falcipain-2 enzymatic assay (assay 1). How it is done:
(§1) Assay 1) Determination of Falcipain-2, Falcipain-3, Vivapain-2, Cathepsin K Cathepsin S, Cathepsin L, and Cathepsin B Proteolytic Catalytic Activity
(§2) Assays for Falcipain-2, Falcipain-3, and Vivapain-2 are carried out with parasitic recombinant enzymes. Cathepsins K, S, L, and B are carried out with human recombinant enzymes. Standard assay conditions for the determination of kinetic constants used a fluorogenic peptide substrate, typically H-D-VLR-AFC (Falcipain-2, Falcipain-3, Vivapain-2), Z-FR-AFC (Cathepsin K, L, B), or KQKLR-AMC (Cathepsin S) and are determined in 100 mM sodium acetate, pH 5.5, containing 10 mM DTT and 0.5 mM CHAPS (Falcipain-2, Falcipain-3, Vivapain-2), and 100 mM sodium acetate, pH 5.5, containing 5 mM L-cysteine, 1 mM CHAPS and 5 mM EDTA (Cathepsin K, L, B), or 50 mM MES, pH 6.5, containing 0.5 mM CHAPS, 10 mM L-CYS, 5 mM EDTA (Cathepsin S). Stock substrate solutions are prepared at 20 mM in DMSO. The activity assays contained 30 uM substrate (Falcipain-2, Falcipain-3, Vivapain-2), 20 uM substrate (Cathepsin K), 25 uM substrate (Cathepsin B), 5 uM substrate (Cathepsin L), and 30 uM substrate (Cathepsin S). All assays contained 1% DMSO. […] All assays are conducted at ambient temperature as end point assays being quenched after 60 minutes with the exception of Cathepsin S at 90 minutes, with 16.6 uM E-64 in 1% DMSO. Product formation (AFC or AMC) is determined from fluorescence (excitation at 405 nm; emission at 530 nm, AFC, or excitation at 360 nm; emission at 460 nm, AMC) monitored with a LJL Aquest (Molecular Devices) fluorescent plate reader. In the case of kinetic reads (used in mechanism of action studies), the reaction is not quenched but is read in the plate reader every 3 minutes for approximately 90 minutes. In addition, the mechanism of action studies for Falcipain-2 utilize Z-LR-AMC as the substrate. Product formation is determined from the fluorescence of AMC, measured with a LJL Acquest (Molecular Devices) fluorescent plate reader (excitation at 360 nm; emission at 460 nm).
(§3) Potential inhibitors are evaluated using the quenched read (endpoint) method. Assays are carried out in the presence of variable concentrations of test compound. Reactions are initiated by addition of enzyme and substrate to wells containing inhibitor stamped in 100% DMSO. For endpoint assays, the reaction is quenched with the addition of E64. Dose response data is fit to an IC50 curve with preset fitting tools according to equation 1:
(§4) y=a+(b−a)/(1+(10^x/10^c)^d) (1)
(§5) where y is the response at a particular inhibitor concentration x, a is the minimum response value, b is the maximum response value, c is the IC50, and d is the slope of the IC50 curve. Assuming the compound is a competitive inhibitor, the apparent KI can be calculated from IC50, as shown in equation 2: […]

For assay [2], the target named is Falcipain-3 (Plasmodium falciparum, UniProt Q8IIL0). Kind of assay: Falcipain-3 enzymatic assay (assay 1). Here is the method:
as §1, §2, §3, §4, §5

The target in assay [3] is T1, Cathepsin K (Homo sapiens, UniProt P43235).
T1 sequence (P43235 115-329): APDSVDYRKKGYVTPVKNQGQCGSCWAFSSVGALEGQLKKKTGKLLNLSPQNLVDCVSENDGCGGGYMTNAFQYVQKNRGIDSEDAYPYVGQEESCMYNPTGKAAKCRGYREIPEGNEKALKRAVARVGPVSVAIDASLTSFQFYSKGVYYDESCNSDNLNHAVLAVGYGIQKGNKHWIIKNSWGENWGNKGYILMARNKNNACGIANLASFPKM
Put plainly: Cathepsin K enzymatic assay (assay 1). Particulars: human recombinant enzyme, Z-FR-AFC substrate, pH 5.5. How it is done: as §1, §2, §3, §4, §5

Structures are written as SMILES. Where a name gives a salt, the structure may show the parent alone. Read-outs that look alike come from different tables or passages of the source.

Sequence of Falcipain-3 (Q8IIL0 243-492): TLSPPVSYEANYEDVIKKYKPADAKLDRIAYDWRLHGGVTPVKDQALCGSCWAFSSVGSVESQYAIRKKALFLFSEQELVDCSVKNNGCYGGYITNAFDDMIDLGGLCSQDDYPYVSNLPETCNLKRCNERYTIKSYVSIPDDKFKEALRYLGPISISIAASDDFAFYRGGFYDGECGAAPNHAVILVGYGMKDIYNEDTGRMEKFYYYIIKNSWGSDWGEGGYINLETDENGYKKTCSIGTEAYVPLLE
Sequence of Falcipain-2 (Q8I6U4 244-484): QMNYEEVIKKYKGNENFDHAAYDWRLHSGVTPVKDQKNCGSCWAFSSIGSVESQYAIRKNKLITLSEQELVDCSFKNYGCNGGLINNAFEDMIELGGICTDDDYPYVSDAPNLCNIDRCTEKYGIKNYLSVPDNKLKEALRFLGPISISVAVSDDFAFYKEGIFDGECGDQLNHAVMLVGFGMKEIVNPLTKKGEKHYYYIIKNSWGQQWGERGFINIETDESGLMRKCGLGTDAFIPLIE

As for `CN1CCN(c2cccc(C(=O)NN(c3nc(C#N)ncc3Cl)C3CCCC3)n2)CC1` [Example 78, N′-(5-chloro-2-cyano-4-pyrimidinyl)-N′-cyclopentyl-6-(4-methyl-1-piperazinyl)-2-pyridinecarbohydrazide trifluoroacetate], the IC50 is < 1 nM in assay [1] and 15 to 150 nM in assay [2].

Turning to `CN1CCC(CN2CCN(Cc3cccc(C(=O)NN(c4nc(C#N)ncc4Br)C4CCCC4)c3)CC2)CC1` [Example 15, N′-(5-bromo-2-cyano-4-pyrimidinyl)-N′-cyclopentyl-3-({4-[(1-methyl-4-piperidinyl)methyl]-1-piperazinyl}methyl)benzohydrazide trifluoroacetate], the IC50 was < 1.5 nM in assay [3]; < 1 nM in assay [1]; 2.5 to 15 nM in assay [2] (parasitic recombinant enzyme, H-D-VLR-AFC substrate, pH 5.5, endpoint read, read-out: Falcipain-3 IC50).

With `CN1CCCC(CN2CCN(Cc3ccc(C(=O)NN(c4nc(C#N)ncc4Br)C4CCOCC4)cc3)CC2)C1` (centres unmarked) [Example 31, N′-(5—Bromo-2-cyano-4-pyrimidinyl)-4-({4-[(1-methyl-3-piperidinyl)methyl]-1-piperazinyl}methyl)-N′-(tetrahydro-2H-pyran-4-yl)benzohydrazide trifluoroacetate], the IC50 in assay [3] was < 17 nM; in assay [1], < 1 nM; in assay [2], 15 to 150 nM.

In the case of `N#Cc1ncc(Br)c(N(NC(=O)c2ccc(CN3CCC(N4CCOCC4)CC3)cc2)C2CCCC2)n1` [Example 6, N′-(5-bromo-2-cyano-4-pyrimidinyl)-N′-cyclopentyl-4-{([4-(4-morpholinyl)-1-piperidinyl]methyl}benzohydrazide trifluoroacetate], the IC50 in assay [3] was < 1.5 nM; in assay [1], < 1 nM; in assay [2] it was 2.5 to 15 nM.

In the case of `CN1CCN(C2CCN(Cc3cccc(C(=O)NN(c4nc(C#N)ncc4Br)C4CCCCC4)c3)CC2)CC1` [Example 20, N′-(5-bromo-2-cyano-4-pyrimidinyl)-N′-cyclohexyl-3-{([4-(4-methyl-1-piperazinyl)-1-piperidinyl]methyl}benzohydrazide trifluoroacetate], the IC50 in assay [3] is < 1.5 nM; in assay [1] it was < 1 nM; in assay [2] it was 15 to 150 nM.

As for `C[C@H]1CCC[C@H]1N(NC(=O)c1ccc(CN2CCN(C)CC2)cc1)c1nc(C#N)ncc1Br` [Example 2, N′-(5-bromo-2-cyano-4-pyrimidinyl)-N′-[(1 R,2S+1S,2R)-2-methylcyclopentyl]-4-[(4-methyl-1-piperazinyl)methyl]benzohydrazide trifluoroacetate], the IC50 was < 17 nM in assay [3], 1 to 2.5 nM in assay [1] and 15 to 150 nM in assay [2].

For the compound `C[C@@H]1CCC[C@H]1N(NC(=O)c1ccc(CN2CCN(C)CC2)cc1)c1nc(C#N)ncc1Br` [Example 3, N′-(5-bromo-2-cyano-4-pyrimidinyl)-N′-[(1R,2R+1S,2S)-2-methylcyclopentyl]-4-[(4-methyl-1-piperazinyl)methyl]benzohydrazide trifluoroacetate], the figures for the half-maximal inhibitory concentration (IC50) in assay [3], in assay [1] and in assay [2] were < 1.5 nM, < 1 nM and 2.5 to 15 nM, respectively.

Turning to `CN1CCN(C2CCN(Cc3ccc(C(=O)NN(c4nc(C#N)ncc4Br)C4CCN(C(=O)OCc5ccccc5)CC4)cc3)CC2)CC1` [Example 48, Phenylmethyl 4-{1-(5-bromo-2-cyano-4-pyrimidinyl)-2-[(4-{[4-(4-methyl-1-piperazinyl)-1-piperidinyl]methyl}phenyl)carbonyl]hydrazino}-1-piperidinecarboxylate triflouroacetate], the IC50 in assay [1] fell in the range of 1 to 2.5 nM; in assay [2] it was 2.5 to 15 nM.

`CCN(C)Cc1ccc(C(=O)NN(c2nc(C#N)ncc2Cl)C2CCCC2)cc1` [Example 74, N′-(5-chloro-2-cyano-4-pyrimidinyl)-N′-cyclopentyl-4-{[ethyl(methyl)amino]methyl}benzohydrazide trifluoroacetate]: the results for the IC50 in assay [1] and in assay [2] were < 1 nM and 15 to 150 nM, respectively.

`CN(Cc1ccc(C(=O)NN(c2nc(C#N)ncc2Cl)C2CCCC2)cc1)CC(O)CO` (centres unmarked) [Example 76, N′-(5-chloro-2-cyano-4-pyrimidinyl)-N′-cyclopentyl-4-{[(2,3-dihydroxypropyl)(methyl)amino]methyl}benzohydrazide trifluoroacetate]: the IC50 in assay [1] was < 1 nM; in assay [2], 2.5 to 15 nM.

Turning to `CN1CCN(Cc2ccc(C(=O)NN(CC(C)(C)C)c3nc(C#N)ncc3Br)cc2)CC1` [Comparative Example 39, N′-(5-bromo-2-cyano-4-pyrimidinyl)-N′-(2,2-dimethylpropyl)-4-[(4-methyl-1-piperazinyl)methyl]benzohydrazide trifluoroacetate, reference compound], the IC50 in assay [1] was in the range of 15 to 150 nM; in assay [2] it was 150 to 250 nM.

With `N#Cc1ncc(Br)c(N(NC(=O)c2cccc(CN3CCC(N4CCOCC4)CC3)c2)C2CCCC2)n1` [Example 13, N′-(5-bromo-2-cyano-4-pyrimidinyl)-N′-cyclopentyl-3-{[4-(4-morpholinyl)-1-piperidinyl]methyl}benzohydrazide trifluoroacetate], the results for the IC50 in assay [1] and in assay [2] were < 1 nM and 2.5 to 15 nM, respectively.

For `CC(C)N(Cc1ccc(C(=O)NN(c2nc(C#N)ncc2Cl)C2CCCC2)cc1)C1CCCCC1` [Example 75, N′-(5-chloro-2-cyano-4-pyrimidinyl)-4-{[cyclohexyl(1-methylethyl)amino]methyl}-N′-cyclopentylbenzohydrazide trifluoroacetate], the IC50 in assay [1] was < 1 nM; in assay [2] it was 2.5 to 15 nM.

Turning to `CC1CCC(N(NC(=O)c2ccc(CN3CCN(C)CC3)cc2)c2nc(C#N)ncc2Br)C1` (mixture of isomers) [Example 26, N′-(5-bromo-2-cyano-4-pyrimidinyl)-N′-(3-methylcyclopentyl)-4-[(4-methyl-1-piperazinyl)methyl]benzohydrazide trifluoroacetate], the IC50 was < 1 nM in assay [1] and 15 to 150 nM in assay [2].

As to `CN(CCO)Cc1ccc(C(=O)NN(c2nc(C#N)ncc2Cl)C2CCCC2)cc1` [Example 58, N′-(5-chloro-2-cyano-4-pyrimidinyl)-N′-cyclopentyl-4-{[(2-hydroxyethyl)(methyl)amino]methyl}benzohydrazide trifluoroacetate], the IC50 in assay [1] is < 1 nM; in assay [2] it was 1 to 2.5 nM.

As for `CN1CCN(Cc2ccc(C(=O)NN(c3nc(C#N)ncc3Br)C3CCOCC3)cc2)CC1` [Example 42, N′-(5-bromo-2-cyano-4-pyrimidinyl)-4-[(4-methyl-1-piperazinyl)methyl]-N′-(tetrahydro-2H-pyran-4-yl)benzohydrazide trifluoroacetate], the IC50 was < 1 nM in assay [1] (parasitic recombinant enzyme, H-D-VLR-AFC substrate, pH 5.5, endpoint read, read-out: Falcipain-2 IC50) and 15 to 150 nM in assay [2].

For `CN1CCN(Cc2ccc(C(=O)NN(c3nc(C#N)ncc3Cl)C3CCOCC3)cc2)CC1` [Example 67, N′-(5-chloro-2-cyano-4-pyrimidinyl)-4-[(4-methyl-1-piperazinyl)methyl]-N′-(tetrahydro-2H-pyran-4-yl)benzohydrazide trifluoroacetate], the half-maximal inhibitory concentration (IC50) in assay [1] is < 1 nM; in assay [2], 2.5 to 15 nM.

Take `CCN(Cc1ccc(C(=O)NN(c2nc(C#N)ncc2Cl)C2CCCC2)cc1)C(C)C` [Example 68, N′-(5-chloro-2-cyano-4-pyrimidinyl)-N′-cyclopentyl-4-{[ethyl(1-methylethyl)amino]methyl}benzohydrazide trifluoroacetate]: the IC50 is < 1 nM in assay [1] and 2.5 to 15 nM in assay [2].

As to `CN(Cc1ccc(C(=O)NN(c2nc(C#N)ncc2Cl)C2CCCC2)cc1)C(C)(C)C` [Example 73, N′-(5-chloro-2-cyano-4-pyrimidinyl)-N′-cyclopentyl-4-{[(1,1-dimethylethyl)(methyl)amino]methyl}benzohydrazide trifluoroacetate], the IC50 in assay [1] is < 1 nM; in assay [2] it was 2.5 to 15 nM.

One may read the IC50 as the point on the concentration scale where inhibition reaches its midpoint.
